Entries after “also recorded” stand apart in the source; their conditions may differ.
Experiments:
AA/C1/SB/10C (10C) cells = assay: Cell proliferation assay, 10C cells; type: cell-based, human; settings: cells transfected with siRNA; compared to untreated cells; no Fn
Procedure: (§1) Full length ANXA1 was amplified by PCR using primers listed in Table 1 and cloned in to pcDNA™3.1 (+) Mammalian Expression Vector. Plasmid transfection was performed using lipofectamine 2000 (Invitrogen, CA) following the manufacturer instructions. Control siRNA, ANXA1-specific siRNA and CDH1-specific siRNA were purchased from Invitrogen (CA). The siRNA utilized in these experiments included: Negative control: Invitrogen Stealth RNAi siRNA negative control cat number 12935300; Annexin siRNA: Invitrogen stealth siRNA (cat # ANXA1HSS100502) sequence UAACCAUUAUGGCCUUAUGCAAGGC (SEQ ID NO: 1); and E-cadherin siRNA: Invitrogen stealth siRNA (cat # CDH1HSS101669) sequence UUAAUCUCCAGCCAGUUGGCAGUGU (SEQ ID NO: 2). Lipofectamine RNAi MAX (Invitrogen, CA) was used for the siRNA transfection following manufacturer instructions.
(§2) Cells were seeded in 24 well plates at 5×10^4 cells per well. Cells were untreated or incubated with bacteria at an MOI of 1000:1. Cell numbers were counted at indicated time points using a hemocytometer as previously described (Rubinstein et al. 2013). Each experiment was performed in triplicate and repeated at least three times.

HCT116 cells [1] = assay: Cell proliferation assay, HCT116 cells; type: cell-based, human; settings: cells transfected with siRNA; compared to untreated cells; no Fn
Procedure: as §1
Annexin antibodies utilized in these experiments included: Annexin A1 (Thermo Fisher Scientific, cat #71-3400); Annexin A2 (Thermo Fisher Scientific, cat # PA5-27566); Annexin V (Thermo Fisher Scientific, cat # PA5-27872); Annexin A6 (Thermo Fisher Scientific, cat. #720161); and Annexin All (Thermo Fisher Scientific, cat # PA5-68093).
Cells were seeded in 24 well plates at 5×10^4 cells per well. […] Cell numbers were counted at indicated time points using a hemocytometer as previously described (Rubinstein et al. 2013). […]

DLD1 cells = assay: Cell proliferation assay, DLD1 cells; type: cell-based, human; settings: cells transfected with siRNA; compared to untreated cells; no Fn
Procedure: as §1, §2

SW480 cells = assay: Cell proliferation assay, SW480 cells; type: cell-based, human; settings: cells transfected with siRNA; compared to untreated cells; no Fn
Procedure: as §1, §2

HT29 cells = assay: Cell proliferation assay, HT29 cells; type: cell-based, human; settings: cells transfected with siRNA; compared to untreated cells; no Fn
Procedure: as §1, §2

AA/C1/SB (SB) cells = assay: Cell proliferation assay, non-tumorigenic SB cells; type: cell-based, human; settings: cells transfected with siRNA; compared to untreated cells; no Fn
Procedure: as §1, §2

RKO cells = assay: Cell proliferation assay, RKO cells; type: cell-based, human; settings: cells transfected with siRNA; RKO expressed the least Annexin A1
Procedure: as §1, §2

HCT116 cells [2] = assay: Tumor xenograft of siRNA-treated HCT116 cells in nude mice; type: in vivo; settings: HCT116 cells treated with siRNA, injected subcutaneously and bilaterally; vs control siRNA; 7 days post injection
Procedure: FIG. 1H are graphs and images of xenografted tumor growth in nude mice following subcutaneous and bilateral inoculation of HCT116 cells transfected with control siRNA (left side) or ANXA1-specific siRNA (right side). The tumor volumes were measured after 7 days post injection (left panel, n=4). For each mouse, the tumor resulting from ANXA1 siRNA-treated cells was normalized to that arising from control siRNA-treated cells which was designated to 100%. The line represents the average. *p<0.05 (unpaired t-test). Representative tumors are shown on the right panel top, tumors arising from control siRNA treated cells; bottom, tumors arising from ANXA1-specific siRNA treated cells.
Four-week old nude mice were purchased from Taconic Biosciences (NY, USA). An inoculum of 1×10^7 HCT 116 cells treated with either control or ANXA1-specific siRNA were injected subcutaneously and bilaterally into the nude mice, with control cells injected on the left side and ANXA1-knockdown cells on the right side. On day 7-9 post-injection, the tumor length and width were measured using calipers and tumor volumes were calculated using the following formula: Volume=(width)^2×length/2.

[3] = system: F. nucleatum 12230 attachment and invasion to 10C cells; assay: Cell culture attachment and invasion assay of F. nucleatum 12230 to 10C cells; type: cell-based, human; settings: 10C transfected with siRNA
Procedure: Fn attachment and invasion to the untreated SB cells were designated as 100%, respectively; all other values were expressed as relative to those obtained with untreated SB. Data are mean values±SEM. *p<0.05, ** p<0.01 and *** p<0.001 (one-way ANOVA).
Data are mean values±SD. The experiment was performed in triplicates and repeated twice. *p<0.05 (student's t-test).
The assay was performed as previously described (Han et al. 2000). Briefly, host cells were seeded in 24 well plates and grown until 80% confluency. Bacteria were added at an MOI 50:1 and incubated for 1 hour at 37° C. in 5% CO2. Following washes with PBS and lysis with water for 20 minutes, serial dilutions of the lysates were plated onto blood agar plates to enumerate the viable bacterial counts. For the invasion assay, bacteria were incubated with the host cells for 3 hours followed by treatment with 300 μg/ml gentamicin and 200 μg/ml metronidazole for 1 hour at 37° C. Following washes with PBS, the cells were lysed with water and intracellular bacterial counts were determined as described above. The levels of attachment and invasion were expressed as the percentage of bacteria recovered following cell lysis relative to the total number of bacteria initially added. Each experiment was performed in triplicate and repeated at least three times.

β-catenin in 10C cells [4] = assay: Flow cytometry of β-catenin expression after F. nucleatum incubation, 10C cells; type: cell-based, human; settings: 10C cells transfected with siRNA, then Fn 12230 MOI approximately 20:1
Procedure: (§3) FIG. 3G are graphs of the results of flow cytometry analysis of β-catenin expression in 10C, HCT 116, and DLD1 cells following transfection with control siRNA (clear bars) or ANXA1-specific siRNA (solid bars) and subsequent incubation with F. nucleatum 12230 at MOI of approximately 20:1 for indicated time periods. The geometric means of cells treated with control siRNA at time 0 was designated as 1. Data are mean values±SD. *** p<0.001. The experiment was performed in duplicates or triplicates and repeated 1-3 times. **p<0.01, ***p<0.001 (two-way ANOVA).
(§4) Approximately a total of 2×10^5 cells were incubated with Fn or purified FadA in 35 mm dish at 37° C. for indicated time periods. After washing with PBS, the cells were incubated with enzyme-free cell dissociation buffer (Thermo Fisher Scientific) for 5 min at 37° C. followed by addition of 1 ml DMEM. The cells were collected and centrifuged at 500 g for 3 minutes. The cell pellet was fixed with 75% cold ethanol and kept at −20° C. The pellet was centrifuged again at 2500 g for 10 minutes and washed with phosphate citrate buffer (200 mM Na2HPO4, 100 mM citric acid, pH 7.4), followed by blocking with PBS containing 2% skim milk at room temperature for 1 hour. […] After washing the cells with PBS, the flow cytometric data were acquired by a BD LSR II flow cytometer and analyzed using Flow Jo software (Tree Star, San Carlos, Calif.).

[5] = system: β-catenin in HCT116 cells; assay: Flow cytometry of β-catenin expression after F. nucleatum incubation, HCT116 cells; type: cell-based, human; settings: HCT116 cells transfected with siRNA, then Fn 12230 MOI approximately 20:1
Procedure: as §3, §4

β-catenin in DLD1 cells [6] = assay: Flow cytometry of β-catenin expression after F. nucleatum incubation, DLD1 cells; type: cell-based, human; settings: DLD1 cells transfected with siRNA, then Fn 12230 MOI approximately 20:1
Procedure: as §3, §4

β-catenin in 10C cells [7] = assay: Immuno-staining of β-catenin nuclear translocation, 10C cells; type: cell-based, human; settings: 10C cells transfected with siRNA, then Fn 12230 MOI about 100:1 for 2 hours
Procedure: The images were captured with confocal microscope at 800× magnification. −, no bacteria added. Note the increased expression of β-catenin and its nucleus translocation in response to Fn in control siRNA-treated cells, compared to ANXA1 siRNA-treated cells.
(§5) An aliquot of 1×10^3-1×10^5 cells were seeded into Nunc Lab-Tek II Chamber Slide System (Thermo Fisher Scientific) in 400 μl and allowed to grow for 2-5 days till reaching desired confluency. Following washes with DMEM, the cells were incubated with CFSE-labeled Fn or Alexa Fluor™488-conjugated FadAc, mFadA, and BSA (300 μg/ml) for indicated time periods. Following washes of ten times with DMEM, the cells were fixed in PBS containing 4% paraformaldehyde at room temperature for 15 minutes, followed by neutralization in PBS containing 1% glycine at room temperature for 15 minutes. After blocking with PBS containing 2% skim milk and 0.3% Triton X-100 for 1 hour at 4° C., the cells were incubated overnight at 4° C. with goat anti-human E-cadherin polyclonal antibodies (1:400 dilution, R&D Systems, MN) and rabbit anti-AnnexinA1 polyclonal antibodies (1:400 dilution, Invitrogen) or rabbit anti-β-catenin polyclonal IgG (1:400 dilution, Invitrogen) in blocking solution. […]

β-catenin in DLD1 cells [8] = assay: β-catenin nucleus translocation, DLD1 cells; type: cell-based, human; settings: Annexin A1 knocked down by siRNA
Procedure: as §5, with “solution. After washing three times with PBS containing 0.3% Triton X-100, the cells were incubated with Cy3-conjugated donkey anti-goat IgG (1:1000 dilution, Jackson ImmunoResearch, West Grove, Pa.) and Alexa Fluor®680-conjugated donkey anti-rabbit IgG (1:1000 dilution, Invitrogen), washed, and covered in mounting medium containing DAPI (Vector Laboratories, CA, USA).” for “solution.”

In the case of “ANXA1-specific siRNA: Invitrogen stealth siRNA cat # ANXA1HSS100502, sequence UAACCAUUAUGGCCUUAUGCAAGGC (SEQ ID NO: 1) (UAACCAUUAUGGCCUUAUGCAAGGC; commercial Invitrogen Stealth siRNA, chemistry not given here)”, the “growth of 10C cells” value (AA/C1/SB/10C (10C) cells) is reported as “inhibited the growth”, the “growth of HCT116 cells” value (HCT116 cells [1]) is reported as “inhibited the growth” and the “growth of DLD1 cells” value (DLD1 cells) is reported as “inhibited the growth”. For the same substance, the “growth of SW480 cells” value (SW480 cells) was “inhibited the growth”, the “growth of HT29 cells” value (HT29 cells) was “inhibited the growth” and the “growth of non-tumorigenic SB cells” value (AA/C1/SB (SB) cells) was “without affecting”. The “growth of RKO cells” value (RKO cells) was “without affecting”, the “xenografted tumor growth (tumor volume)” value (HCT116 cells [2]) was “significantly attenuated tumor growth” and the “Fn binding (attachment) to 10C cells” value ([3]; Fn 12230 MOI 50:1, 1 hour) was “effectively reduced”. The “Fn invasion of 10C cells” value ([3]; Fn 12230 MOI 50:1, 3 hours) was “effectively reduced”, the “F. nucleatum-mediated activation of β-catenin expression” value (“F. nucleatum-mediated activation” below) (β-catenin in 10C cells [4]) was “abolished” and the “F. nucleatum-mediated activation” value [5] was “abolished”. For the same substance, the “F. nucleatum-mediated activation” value (β-catenin in DLD1 cells [6]) was “abolished”, the “nuclear translocation of β-catenin” value (β-catenin in 10C cells [7]) was “abolished; also recorded: inhibited” and the “nucleus translocation of β-catenin” value (β-catenin in DLD1 cells [8]) was “abolished”.

— patent US20210292400A1, “METHODS FOR TREATING, PREVENTING AND DETECTING THE PROGNOSIS OF COLORECTAL CANCER” (priority 2018, published 2021)
